Experimental data taken from patent US20050137239A1, “Thiazole derivatives” (priority 2003, published 2005).

Columns and labels:
glucose oxidase = biological target: T1, glucose oxidase (Aspergillus niger, UniProt P13006); assay: glucose oxidase inhibition, commercially available glucose oxidase kit; format: biochemical
T1 construct: purchased
From the text: This example describes the effectiveness of a compound of the invention for inhibiting the enzyme glucose oxidase.
To test the efficacy of 2-amino-4,5-dimethylthiazole HCl for the inhibition of glucose oxidase, a commercially available glucose oxidase kit was used.

[1] = tested on: cross-links representative of AGEs; assay: AGE crosslink breaking, sandwich enzyme-linked immunoabsorbent assay; settings: pre-formed protein-sugar cross-links in multi-well plates; buffer control
Protocol: This example describes the efficacy of a compound of the invention for breaking crosslinks associated with AGEs using a sandwich enzyme-linked immunoabsorbent assay.
A mixture of protein and sugar was incubated to form cross-links representative of AGEs and was placed in multi-well plates. The plates were then treated with either 2-amino-4,5-dimethylthiazole HCl or buffer. After treatment, the plates were rinsed to remove any free protein liberated by cross-link breakage. An antibody reactive to the protein was then added to the plates to provide quantitative levels of protein within the plate.

AGE formation = AGE formation inhibition: protein and sugar incubated at 37° C., gel formation; settings: control tube forms a gel
Protocol: This example describes the efficacy of a compound of the invention for inhibiting AGE formation.
A control tube, containing protein and sugar, forms a gel with little or no remaining liquid when incubated at 37° C. Such a gel is indicative of extensive crosslinking associated with glycation.

T1 sequence (P13006 17-605, species assumed): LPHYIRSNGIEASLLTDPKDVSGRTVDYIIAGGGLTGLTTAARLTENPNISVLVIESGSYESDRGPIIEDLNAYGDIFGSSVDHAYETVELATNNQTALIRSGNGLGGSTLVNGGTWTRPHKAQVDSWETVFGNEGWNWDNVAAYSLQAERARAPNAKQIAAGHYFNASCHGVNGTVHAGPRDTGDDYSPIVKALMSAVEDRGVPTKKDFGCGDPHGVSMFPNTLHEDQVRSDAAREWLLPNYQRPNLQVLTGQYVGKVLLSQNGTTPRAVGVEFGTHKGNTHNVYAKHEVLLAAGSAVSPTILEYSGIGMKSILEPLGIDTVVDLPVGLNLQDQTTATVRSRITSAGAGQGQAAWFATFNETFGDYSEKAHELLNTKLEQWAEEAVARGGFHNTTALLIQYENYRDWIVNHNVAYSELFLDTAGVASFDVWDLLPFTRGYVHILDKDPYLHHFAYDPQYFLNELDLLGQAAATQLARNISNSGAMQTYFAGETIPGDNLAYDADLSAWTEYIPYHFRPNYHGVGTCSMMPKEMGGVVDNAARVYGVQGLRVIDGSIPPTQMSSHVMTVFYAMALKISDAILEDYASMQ

## Cc1nc(N)sc1C.Cl [2-amino-4,5-dimethylthiazole HCl, 2-amino-4,5-dimethylthiazole hydrochloride]
Glucose oxidase
  reduction of production of H2O2 as compared to a control sample: greater than 60%
[1]
  antibody bound in the plate as compared to the control plate: less antibody bound
AGE formation
  state of protein and sugar mixture (gel indicates crosslinking associated with glycation): remained liquid
